Here are results for five compounds from article PMC9785280, “Synthesis, Antiproliferative Evaluation and QSAR Analysis of Novel Halogen- and Amidino-Substituted Benzothiazoles and Benzimidazoles” (International Journal of Molecular Sciences, 2022).

The IC50 is the concentration needed to halve the response being measured.

Values joined by “and” are separate entries in the source; they are usually repeats but may differ in a detail not shown here. Identical values can stand only once. Some results are limits rather than exact numbers.

Data set [1] relates to MDCK1 (Madin–Darby canine kidney) cells. Description: MTT antiproliferative assay, non-tumor MDCK1 cells. The format is cell-based. The note with it: Canis lupus familiaris, MDCK1, 72 h, mean ± SD of three independent experiments, normal cells. The essentials: (§1)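 GI50 values derive from least-squares fits of log concentration against percent inhibition. Each fit uses MTT absorbance (595 nm) recorded after 72 h treatment at 10^−7 to 10^−4 M, relative to untreated cells.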

For data set [2], the system named is HeLa (cervical adenocarcinoma) cells. The experiment in a line: MTT antiproliferative assay, HeLa. Conditions: Homo sapiens, 72 h, mean ± SD of three independent experiments. The format is cell-based. The essentials: as §1
Background: Tetrazolium dyes change colour on reduction, which living cells bring about.

Data set [3] has as its system CaCo-2 (colon adenocarcinoma) cells. Description: MTT antiproliferative assay, CaCo-2. The format is cell-based, human. The note with it: Homo sapiens, Caco-2; 72 h, MTT, mean ± SD of three independent experiments. The essentials: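 CaCo-2 cells, plated at 2 × 10^4 cells/mL in DMEM with 10 % FBS at 37 °C/5% CO2, were treated 24 h later with five 10-fold dilutions (10^−7 to 10^−4 M) for 72 h. Viability was measured by MTT (4 h, formazan dissolved in DMSO, OD 595 nm) against background and untreated controls. GI50 came from log-concentration versus percent-inhibition fits.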

In data set [4] the test system is HuT78 (T-cell lymphoma) cells. Description: MTT antiproliferative assay, HuT78. The format is cell-based, human. Conditions: for IC50: Homo sapiens, HuT78, 72 h, 72 h, MTT, mean ± SD of three independent experiments; for SI (MDCK) HuT78: SI = IC50 MDCK1 / IC50 HuT78. In short, it runs like this: as §1
Data set [5] concerns SW620 (colorectal adenocarcinoma, metastatic) cells. Description: MTT antiproliferative assay, SW620. The format is cell-based, human. Conditions: for IC50: Homo sapiens, SW-620, 72 h, MTT, mean ± SD of three independent experiments, read-out: IC50 (µM) SW620. As to the method: (§2) The growth inhibition activity was assessed according to the slightly modified procedure performed at the National Cancer Institute, Developmental Therapeutics Program.
(§3) Examined compounds were dissolved in DMSO (1 × 10^−2 M). The experiments were carried out on seven human tumor cell lines and two normal cell lines. The following cell lines were used: HeLa (human cervical adenocarcinoma; purchased from ATCC), CaCo-2 (human colorectal adenocarcinoma), HuT78 (T-cell lymphoma), THP-1 (acute monocytic leukemia), SW620 (colorectal adenocarcinoma, metastatic), MDA-MB-231 (human breast adenocarcinoma), HL60 (promyelocytic leukemia cell line), foreskin fibroblast cells (BJ) and MDCK1 (Madine–Darby canine kidney fibroblast like cells). MDCK1 cells were used between 24 and 26 passages.
(§4) Adherent cells were cultured in the Dulbecco’s modified Eagle medium—DMEM (Gibco, EU) supplemented with 10 % heat-inactivated fetal bovine serum (FBS, Gibco, EU), 2 mM glutamine, and 100 U/0.1 mg penicillin/streptomycin. Cells on suspension were cultured in RPMI 1640 (Gibco, EU) medium supplemented with 10 % FBS (Gibco, EU), 2 mM glutamine, 1 mM sodium pyruvate, 10 mM HEPES. Cells were grown in humidified atmosphere under the conditions of 37 °C/5% of CO2 gas in the CO2 incubator (IGO 150 CELLlife^TM, JOUAN, Thermo Fisher Scientific, Waltham, MA, USA). A erythrosin B (Sigma-Aldrich, St. Louis, MO, USA) dye exclusion method was used to assess cell viability before plating.
(§5) Adherent cells (HeLa, CaCo-2, MCF-7 and MDCK-1) were plated in 96-well flat bottom plates (Greiner, Frickenhausen, Austria) at a concentration of 2 × 10^4 cells/mL. Suspension cells (THP-1 and HuT78) were plated in 96-well microtiter plates (Sarstead, Newton, USA) at a concentration of 1 × 10^5 cells/mL. Twenty-four hours later, cells were treated with test agents in […] 10-fold dilutions ([…] to 10^−4 M) and incubated for further 72 h. Working dilutions were freshly prepared on the day of testing. The solvent was also tested for eventual inhibitory activity by adjusting its concentration to be the same as in working concentrations. After 72 h of incubation, the cell growth rate was evaluated by performing the MTT assay, which detects dehydrogenase activity in viable cells. For this purpose, upon completion of the incubation period, growth medium was discarded and 50 μL of MTT was added to each well at a concentration of 5 mg/mL. After four hours of incubation at 37 °C, water insoluble MTT-formazan crystals were dissolved in 150 μL of dimethyl-sulfoxide (DMSO) for adherent cells, and in 10 % SDS with 0.01 M/L HCl for cells grown in suspension. The absorbance (OD, optical density) was measured on a microplate reader (iMark, BIO RAD, Hercules, CA, USA) at 595 nm.
(§6) Percent of life cells was calculated as follows: % = OD (sample)–OD (background)/OD (control)–OD (background) × 100.
(§7) Optical density (OD) of background for adherent cells is the OD of MTT solution and DMSO; OD (background) for suspension cells is OD of the culture medium with MTT and 10% SDS with 0.01 M/L HCl; OD (control) is the OD of the cells growth without tested compounds.
(§8) Calculation of GI50 value curves and QC analysis is performed by using the Excel tools and GraphPadPrism software (La Jolla, CA), v. 5.03. Briefly, individual concentration effect curves are generated by plotting the logarithm of the concentration of tested compounds(X) vs. corresponding percent inhibition values (Y) using least squares fit. The best fit GI50 values are calculated using Log (inhibitor) versus normalized response—Variable slope equation, where Y Ľ 100/(1 ţ 10 ((LogIC50 _ X) * HillSlope)). QC criteria parameters (Z0, S:B, R2, HillSlope) were checked for every GI50 curve.

In data set [6] the test system is MDA-MB-231 (human breast adenocarcinoma) cells. Description: MTT antiproliferative assay, MDA-MB-231. Conditions: for IC50: Homo sapiens, MDA-MB-231, 72 h, MTT, mean ± SD of three independent experiments. The format is cell-based. As to the method:
as §2, §3, §4, §5, §6, §7, §8

In data set [7] the test system is HL60 (promyelocytic leukemia) cells. The experiment in a line: MTT antiproliferative assay, HL60. The format is cell-based, human. The note with it: for IC50: Homo sapiens, HL-60, 72 h, MTT, mean ± SD of three independent experiments; for SI (BJ) HL60: SI = IC50 BJ / IC50 HL60; for SI (MDCK) HL60: SI = IC50 MDCK1 / IC50 HL60. How it is done: as §2, §3, §4, §5, §6, §7, §8

The test system of data set [8] is THP1 (human monocytic leukemia) cells. The experiment in a line: MTT antiproliferative assay, THP1. The data set is classed as cell-based. Conditions: for SI (BJ) THP1: SI = IC50 BJ / IC50 THP1; for SI (MDCK) THP1: SI = IC50 MDCK1 / IC50 THP1; for IC50: Homo sapiens, THP-1, 72 h, MTT, mean ± SD of three independent experiments. How it is done:
as §2, §3, §4, §5, §6, §7, §8

In data set [9] the test system is HuT78 cells. The experiment in a line: Cell cycle analysis (PI, flow cytometry). Conditions: HuT78, 5 µM, 24 h, versus untreated cells. The data set is classed as cell-based, human. As to the method: The HuT78 cells were plated in 6-well plates at a concentration of 5 × 10^5 cells per well and treated 24 h and 48 h with selected compounds 36c, 42a, 42c, 45a, 45b, 45c and 46c at a concentration of 5 μM. After drug treatment, the cells were fixed with ice-cold 70% ethanol in phosphate-buffered saline (PBS) and incubated with 0.3 μg/mL propidium iodide for 30 min at room temperature. Before being analyzed by flow cytometry (BD FACSCalibur, Becton Dickinson, San Jose, CA, SAD), samples were treated with 0.4 μg/mL RNase A for 5 min at room temperature. The resultant DNA histograms were generated and analyzed using FlowJo 7.6 software (Treestar, Inc, Ashland, OR, USA). Experiments were done in duplicate and the quantitative data are reported as average value ± standard deviation. Comparisons between control (non-treated) and treated groups were done using one-way analysis of variance (ANOVA) with Tukey–Kramer’s post hoc test with MedCalc statistical program. P-value less than 0.05 was considered statistically significant.
In general terms: A flow cytometer gives signals particle by particle.

The subject of data set [10] is human fibroblasts (BJ). Description: MTT antiproliferative assay, normal BJ fibroblasts. The data set is classed as cell-based. The note with it: for IC50: Homo sapiens, Fibroblast, 72 h, MTT, mean ± SD of three independent experiments, normal cells. The essentials:
as §1

In data set [11] the test system is MCF-7^wt cells. On the set-up: method as in PMID 23623491. Conditions: estrogen receptor-positive MCF-7^wt cells ref 17,18; cited from earlier work.

Consider `c1ccc(Cn2cc(COc3ccc(-c4nc5ccc(C6=NCCCN6)cc5[nH]4)cc3)nn2)cc1` [45a], for which the IC50 in data set [1] is greater than 100 µM; in [2], greater than 100 µM; in data set [3], greater than 100 µM; in data set [4], 4.8 ± 3.6 µM; in data set [5], greater than 100 µM; in [6], greater than 100 µM. It took 48.1 ± 16.4 µM to reach half-maximal inhibition in [7] (IC50). In addition, the “SI (MDCK) HuT78” value in data set [4] is recorded as 20.83. Besides, the “SI (BJ) HL60” value in data set [7] is given as 1.15. For the same compound, in data set [7], the “SI (MDCK) HL60” value turned out to be 2.07. The “SI (BJ) THP1” value in data set [8] was 69.5 and 70. Besides, the “SI (MDCK) THP1” value in data set [8] is on record as 125. For the same compound, the “G2/M phase cell fraction” value in [9] is given as “decrease in G2/M phase”.

In the case of `COc1cc(-c2nc3ccc(C4=NCCCN4)cc3[nH]2)ccc1OCc1cn(Cc2ccccc2)nn1` [45c], the IC50 in data set [1] was 68.5 ± 22.7 µM; in data set [10], greater than 100 µM; in data set [2] it was greater than 100 µM; in [3] it was greater than 100 µM; in data set [4], 4.1 ± 3.3 µM; in data set [5], greater than 100 µM. Also, the IC50 in data set [6] is greater than 100 µM; in [7] it was 25.1 ± 16 µM; in data set [8], greater than 100 µM. In addition, in [10], the “toxicity to normal BJ cells (in words)” value is “not toxic”. Besides, the “SI (MDCK) HuT78” value in data set [4] is on record as 16.7. In addition, the “SI (MDCK) HL60” value in data set [7] was found to be 2.73. Also, the “G2/M phase cell fraction” value in data set [9] is recorded as “decrease in G2/M phase”.

On to `Fc1cc(-c2nc3ccc(C4=NCCCN4)cc3[nH]2)ccc1OCc1cn(Cc2ccccc2)nn1` [45b], for which the IC50 in data set [1] is 46.1 ± 14.8 µM; in data set [10], 82.1 ± 0.4 µM; in data set [2], greater than 100 µM; in [3], greater than 100 µM; in data set [4], 5.5 ± 4 µM; in [5], greater than 100 µM. Besides, the IC50 is greater than 100 µM in data set [6], 30 ± 12.3 µM in [7] and 2.5 ± 1.5 µM in data set [8]. Besides, the “SI (MDCK) HuT78” value in [4] came out at 8.36. Further, the “SI (BJ) HL60” value in [7] was determined as 2.74. Further, the “SI (MDCK) HL60” value in [7] is 1.54. In data set [8], the “SI (BJ) THP1” value came out at 32.84. In addition, the “SI (MDCK) THP1” value in data set [8] worked out at 18.44. Moreover, the “G2/M phase cell fraction” value in data set [9] was “decrease in G2/M phase”.

Regarding `Nc1ccc(-c2nc3ccccc3s2)cc1` [CJM-126], the IC50 in data set [11] was less than 0.001 µM.

Consider `COc1cc(-c2nc3ccc(C4=NCCCN4)cc3[nH]2)ccc1OCC(=O)c1ccccc1` [42c], for which the IC50 in [1] was greater than 100 µM; in data set [10], 32.8 ± 4.1 µM; in data set [2], greater than 100 µM; in data set [3], greater than 100 µM; in data set [4], 24.9 ± 4.6 µM; in data set [5], 29.8 ± 3 µM. For the same compound, the IC50 came to 38.9 ± 4.2 µM in [6], 19.5 ± 0.8 µM in [7] and 19.7 ± 2.4 µM in data set [8]. Moreover, the “SI (BJ) HuT78” value in data set [4] (SI = IC50 BJ / IC50 HuT78) is reported as 1.32. Further, in [4], the “SI (MDCK) HuT78” value stood at 4.0. In addition, the “SI (MDCK) SW620” value in data set [5] (SI = IC50 MDCK1 / IC50 SW620) was determined as 3.36. Further, the “SI (MDCK) MDA-MB-231” value in data set [6] (SI = IC50 MDCK1 / IC50 MDA-MB-231) turned out to be 2.57. The “SI (BJ) HL60” value in [7] was 1.68. For the same compound, the “SI (MDCK) HL60” value in data set [7] is on record as 5.13. In addition, the “SI (BJ) THP1” value in data set [8] is 1.68. Besides, the “SI (MDCK) THP1” value in [8] was 5.13. Besides, in data set [9], the “G2/M phase cell fraction” value is listed as “decrease in G2/M phase”.
